These results are taken from US10800812B2, “Compstatin analogs with increased solubility and improved pharmacokinetic properties” (The Trustees of the University of Pennsylvania, priority 2018, dated 2020).

The target of one data set is T1, human C3b (Homo sapiens, UniProt P01024).
T1 construct: purchased Complement Technology, Inc., Tyler, Tex
Briefly: SPR binding affinity and kinetics with C3b. The following applies: 25° C., 1:1 Langmuir model; read-out: ka, association constant. In general terms: SPR reads the build-up and loss of mass on a sensor chip optically.

A short description of data set [1]: Lys cleavage fragments in NHP plasma after s.c. injection (UPLC-ESI-MS). In kind it is in vivo, cynomolgus monkeys. The following applies: 4 h after the s.c. injection of Cp40-KKK, one monkey.
The test system of data set [2] is classical pathway activation (C3b deposition). Description: Classical pathway activation ELISA (C3b deposition) with or without rabbit vitreous. In kind it is biochemical, human. The note with it: in the absence of vitreous. The method, then:
An alternative explanation to the one presented above is that the vitreous contains additional unidentified factors that associate with the Cp40-KKK analog. To investigate whether an unidentified vitreous factor impacts the complement inhibitory activity of lysine containing compounds, complement activation assays were performed using vitreous samples. Briefly, human plasma was incubated with OVA-anti-OVA immune-complexes in the presence of serial dilutions of the Cp40-based analogs mixed with rabbit vitreous. Levels of classical pathway activation (C3b deposition) were determined by ELISA using a polyclonal anti-human C3 antibody conjugated with HRP (MP Biomedicals, Solon, Ohio) (FIG. 20).
(In general: In an ELISA, binding on a coated surface is turned into a signal by an enzyme label.)

Data set [3] is described as follows: Solubility of Cp40-based analogs in PBS. The note with it: for pH of the peptide solution in PBS: at the solubility concentration; for solubility: PBS, pH 7.4, Conc. (solubility in PBS), PBS (pH 7.4).
Data set [4] is described as follows: Pharmacokinetics after single i.v. injection. The note with it: cynomolgus monkey, in vivo, iv. On the set-up: species or system cynomolgus monkeys. The method, then:
In vivo pharmacokinetic studies were conducted, in which cynomolgus monkeys were administered single i.v. injections of mPEG(1k)-Cp40, mPEG(3k)-Cp40, Cp40-KK, or Cp40-KKK.

The nature of data set [5]: Residence time in the vitreous after intravitreal injection (WES / SPR competition assay). It is filed as in vivo, cynomolgus monkeys. The following applies: single i.v.t. injection 0.5 mg; days 14-90. The method, then:
To determine the residence time of mPEG(3k)-Cp40, mPEG(1k)-Cp40, Cp40-KK, and Cp40-KKK in the vitreous of cynomolgus macaques, these Cp40-based analogs were administered intravitreally (i.v.t.) to the animals after induction of light ketamine anesthesia (10-15 mg/kg, by intramuscular injection (i.m.)) and dilation of the pupils with tropicamide/phenylephrine ophthalmic solution (see Table 6 for study design).
For i.v.t. injection, the cynomolgus monkeys were anesthetized with a combination of ketamine (15-25 mg/kg, i.m.) and xylazine (2 mg/kg, i.m.) and the eye was cleaned with povidone-iodine solution. After application of oxybuprocaine hydrochloride solution (Benoxil® ophthalmic solution 0.4%) to the cornea as a local anesthetic, the Cp40-based analogs were administered to the animals by i.v.t. injection into either the right (G1, G3) or left (G2, G4) eye of each animal. Immediately following each injection, a single topical dose of 0.5% levofloxacin was administered. After i.v.t. injection of mPEG(3k)-Cp40, mPEG(1k)-Cp40, Cp40-KK, and Cp40-KKK, vitreous fluid samples (about 50 μL each) were withdrawn from Cp40-based analog-treated eyes on days 14, 28, 42, (G1, G2, G3, G4), 56, 73, 90 (G1, G2) (this was done either three times or six times). Samples were collected on ice and stored in a deep freezer (−79.3 to −68.5° C.) until further analysis. On day 73 and 90, about 100 μL of vitreous fluid from G1 and G2 were withdrawn. Presence and concentration of the Cp40-based analogs was determined using either the simple western technology (WES, ProteinSimple, San Jose, Calif.), or surface plasmon resonance (SPR)-based real-time measurement of binding kinetics on a Cp40-KKK immobilized chip (see detailed methods below). Similar results with regard to the intravitreal residence time and concentration levels of the test compounds were obtained regardless of the quantification method selected.
To quantify the levels of all test compounds in vitreous samples collected at different time points following i.v.t. injection (see FIG. 15), WES analysis was performed on a WES instrument (ProteinSimple, San Jose, Calif.) using a 2 to 40 kDa Separation Module and Anti-Rabbit Detection Module according to the manufacturers' instructions. In brief, undiluted eye vitreous samples were mixed with a Fluorescent Master Mix and heated at 95° C. for 5 min. The samples, blocking reagent, primary antibodies (in house developed anti-Cp40; 1:1000 in blocking reagent), HRP-conjugated secondary antibody (anti-rabbit IgG) and chemiluminescent substrate were pipetted into the plate (part of Separation Module). The used instrument settings were: stacking and separation at 375 V for 27 min; blocking reagent for 30 min, primary and secondary antibody both for 30 min; Luminol/peroxide chemiluminescence detection for ˜15 min (exposures of 5, 15, 30, 60, 120, 240, and 480 s). The resulting electropherograms were evaluated using the Compass software (ProteinSimple, San Jose, Calif.). The following criteria were used to discriminate low peptide signals from background: The peak signal-to-noise (S/N) ratio given by the software must be ≥10, and the peak height/baseline ratio (calculated manually from the peak height and baseline values given by the software) must be equal to or greater than 3. A five-point standard curve of known concentrations (100-2,000 nM) of peptide spiked in rabbit vitreous was used to calculate peptide concentration in the vitreous samples using the Compass software (Compass Software Inc., Atlanta, Ga.). […] Shown in FIG. 15 is a representative standard curve generated using the WES system and bands obtained upon running pre-determined amounts of purified peptide spiked into rabbit vitreous samples.
To corroborate the WES-based measurements for all test compounds, an SPR-based competition assay was developed for detecting Cp40 and Cp40 analogs in biological samples. […] The samples were heated at 95° C. for 5 min. […]

The next data set in a line: physchem. The following applies: pH 7.4, Conc. (solubility in PBS).
Data set [6] in a line: Pharmacokinetics after single i.m. injection. The note with it: cynomolgus monkey, in vivo, im, 25 mg/kg.
Data set [7] can be described thus: Pharmacokinetics in NHP plasma after single s.c. injection. The following applies: 2 mg/kg, NHP plasma, two animals.
The mark [8] stands for this setting: single s.c. 2 mg/kg, listed as Cp40-KK (SUM).

One may read the half-life as how long it takes for the measured level to halve. As a reminder, the solubility is the dissolved amount per volume that the medium holds. What is called AUC(0-t) is exposure summed from dosing to a finite time, without extrapolation to infinity. The AUC(0-inf) is the area under the concentration-time curve extrapolated to infinity. Usually Cmax stands for the maximum level reached in the sampled fluid or tissue. What is called Tmax is the time at which the peak concentration occurs.

≈ marks a conversion by molar mass, not a printed value.

T1 sequence (P01024 23-667 limits assumed): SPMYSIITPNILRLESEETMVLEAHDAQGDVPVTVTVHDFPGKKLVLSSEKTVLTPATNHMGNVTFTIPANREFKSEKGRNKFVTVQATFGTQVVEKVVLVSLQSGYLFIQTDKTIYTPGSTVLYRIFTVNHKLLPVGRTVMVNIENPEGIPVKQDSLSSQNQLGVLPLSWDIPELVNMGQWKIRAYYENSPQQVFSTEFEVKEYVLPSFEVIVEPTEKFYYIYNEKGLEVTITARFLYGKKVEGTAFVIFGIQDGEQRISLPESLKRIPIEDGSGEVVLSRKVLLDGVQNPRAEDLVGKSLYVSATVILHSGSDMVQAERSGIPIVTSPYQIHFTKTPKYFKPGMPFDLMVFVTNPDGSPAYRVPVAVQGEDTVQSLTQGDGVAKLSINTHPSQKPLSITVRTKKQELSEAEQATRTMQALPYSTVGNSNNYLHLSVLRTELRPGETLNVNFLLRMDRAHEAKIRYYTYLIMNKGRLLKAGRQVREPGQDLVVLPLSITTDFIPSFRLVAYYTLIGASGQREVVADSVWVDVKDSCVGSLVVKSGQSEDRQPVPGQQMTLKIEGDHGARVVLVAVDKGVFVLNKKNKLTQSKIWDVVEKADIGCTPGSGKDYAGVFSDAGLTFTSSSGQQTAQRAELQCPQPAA
T1 sequence (P01024 749-1663 partner limits assumed): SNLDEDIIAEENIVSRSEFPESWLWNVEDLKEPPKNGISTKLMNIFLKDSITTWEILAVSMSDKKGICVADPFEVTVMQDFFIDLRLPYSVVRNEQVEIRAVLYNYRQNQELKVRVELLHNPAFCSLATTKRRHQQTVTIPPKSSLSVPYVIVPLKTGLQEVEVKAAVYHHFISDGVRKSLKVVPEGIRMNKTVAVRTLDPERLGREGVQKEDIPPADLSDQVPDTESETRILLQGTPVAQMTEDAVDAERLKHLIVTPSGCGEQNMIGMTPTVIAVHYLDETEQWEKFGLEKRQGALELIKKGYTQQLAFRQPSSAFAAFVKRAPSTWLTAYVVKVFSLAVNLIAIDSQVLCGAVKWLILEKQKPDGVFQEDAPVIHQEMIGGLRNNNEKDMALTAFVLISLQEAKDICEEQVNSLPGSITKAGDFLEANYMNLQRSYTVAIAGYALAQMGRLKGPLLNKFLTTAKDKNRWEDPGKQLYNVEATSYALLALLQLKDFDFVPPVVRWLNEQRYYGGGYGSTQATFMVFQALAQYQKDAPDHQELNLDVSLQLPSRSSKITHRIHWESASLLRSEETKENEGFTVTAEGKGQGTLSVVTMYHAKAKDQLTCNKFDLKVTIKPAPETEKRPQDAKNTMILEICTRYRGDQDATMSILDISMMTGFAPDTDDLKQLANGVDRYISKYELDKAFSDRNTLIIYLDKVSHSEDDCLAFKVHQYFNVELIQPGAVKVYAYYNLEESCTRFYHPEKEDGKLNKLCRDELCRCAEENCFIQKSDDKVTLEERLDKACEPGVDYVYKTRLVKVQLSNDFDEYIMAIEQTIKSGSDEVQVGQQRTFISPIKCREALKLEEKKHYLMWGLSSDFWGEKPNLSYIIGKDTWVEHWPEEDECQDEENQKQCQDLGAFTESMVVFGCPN

Regarding `CC[C@H](C)[C@H](NC(=O)[C@H](N)Cc1ccc(O)cc1)C(=O)N[C@H]1CSSC[C@@H](C(=O)N(C)[C@H](C(=O)N[C@@H](CCCCN)C(N)=O)[C@@H](C)CC)NC(=O)[C@H](CCCNC(=N)N)NC(=O)[C@H](Cc2c[nH]cn2)NC(=O)[C@H](C)NC(=O)CN(C)C(=O)[C@H](Cc2c[nH]c3ccccc23)NC(=O)[C@H](CC(=O)O)NC(=O)[C@H](CCC(N)=O)NC(=O)[C@H](Cc2cn(C)c3ccccc23)NC(=O)[C@H](C(C)C)NC1=O` [Cp40-K, DTyr-Ile-[Cys-Val-Trp(Me)-Gln-Asn-Trp-Sar-Ala-His-Arg-Cys]-mIle-Lys-NH2], on human C3b, the kon was 1.98e+06 M⁻¹ s⁻¹. In data set [1], the “Cp40-K detectable in plasma” value amounted to 5 µM. In [2], the “complement classical pathway inhibitory activity” value is given as “inhibitory activity in a dose-dependent manner”. Further, in data set [3], the “pH of the peptide solution in PBS” value is listed as 7.5.

For the compound `CC[C@H](C)[C@H](NC(=O)[C@H](N)Cc1ccc(O)cc1)C(=O)N[C@H]1CSSC[C@@H](C(=O)N(C)[C@H](C(=O)N[C@@H](CCCCN)C(=O)N[C@@H](CCCCN)C(N)=O)[C@@H](C)CC)NC(=O)[C@H](CCCNC(=N)N)NC(=O)[C@H](Cc2c[nH]cn2)NC(=O)[C@H](C)NC(=O)CN(C)C(=O)[C@H](Cc2c[nH]c3ccccc23)NC(=O)[C@H](CC(=O)O)NC(=O)[C@H](CCC(N)=O)NC(=O)[C@H](Cc2cn(C)c3ccccc23)NC(=O)[C@H](C(C)C)NC1=O` [Cp40-KK, DTyr-Ile-[Cys-Val-Trp(Me)-Gln-Asn-Trp-Sar-Ala-His-Arg-Cys]-mIle-Lys-Lys-NH2], on human C3b, the kon came to 3.94e+06 M⁻¹ s⁻¹. Besides, the “Lys cleavage in plasma upon i.v. injection” value in data set [4] is listed as “metabolized to minimal amounts of Cp40-K”. For the same compound, the half-life is 49.2 h in data set [4] (single i.v. injection 2 mg/kg); roughly 192 h in [6]; 145 h in [7] (male, cynomolgus monkey, plasma, sc, t1/2, single s.c. 2 mg/kg). Moreover, the “detection in the vitreous at time points post-injection” value in [5] is listed as “no longer detected on day 90”. Moreover, the “complement classical pathway inhibitory activity” value in data set [2] is “inhibitory activity in a dose-dependent manner”. The same compound registered a solubility in the data set “physchem” greater than 245 mg/mL. Besides, in data set [7] (male, cynomolgus monkey, plasma, sc, AUC0-t (0-120 h), single s.c. 2 mg/kg), the AUC(0-t) is 329 µM·h. For the same compound, in [7] (male, cynomolgus monkey, plasma, sc, AUCinf, single s.c. 2 mg/kg), the area under the curve AUC(0-inf) was determined as 597 µM·h. The Cmax in data set [7] (male, cynomolgus monkey, plasma, sc, Cmax, single s.c. 2 mg/kg) was 12.9 µM; in data set [7] (setting [8]), 9.26 µM. The Tmax in data set [7] (male, cynomolgus monkey, plasma, sc, tmax, single s.c. 2 mg/kg) is 1 h. For the same compound, the t1/2 in data set [7] (single s.c. 2 mg/kg) was 276 h. Besides, the “AUC0-t (0-120 h)” value in [7] (setting [8]) is 257 µM·h. This compound also returned an AUCinf in data set [7] (setting [8]) of 755 µM·h.

Turning to `CC[C@H](C)[C@H](NC(=O)[C@@H](Cc1ccc(O)cc1)NC(=O)CCOCCOCCOCCOCCOCCOCCOCCOCCOCCOCCOCCOC)C(=O)N[C@H]1CSSC[C@@H](C(=O)N(C)[C@H](C(N)=O)[C@@H](C)CC)NC(=O)[C@H](CCCNC(=N)N)NC(=O)[C@H](Cc2c[nH]cn2)NC(=O)[C@H](C)NC(=O)CN(C)C(=O)[C@H](Cc2c[nH]c3ccccc23)NC(=O)[C@H](CC(=O)O)NC(=O)[C@H](CCC(N)=O)NC(=O)[C@H](Cc2cn(C)c3ccccc23)NC(=O)[C@H](C(C)C)NC1=O` [mPEG(528)-Cp40], the kon on human C3b came to 1e+06 M⁻¹ s⁻¹. Also, the solubility in data set [3] turned out to be 2.3 mg/mL (≈ 0.975 mM).

With `CC[C@H](C)[C@H](NC(=O)[C@@H](Cc1ccc(O)cc1)NC(=O)CCOCCOCCOCCOCCOCCOCCOCCOCCOCCOCCOCCOCCOCCOCCOCCOCCOCCOCCOCCOCCOCCOCCOCCOC)C(=O)N[C@H]1CSSC[C@@H](C(=O)N(C)[C@H](C(N)=O)[C@@H](C)CC)NC(=O)[C@H](CCCNC(=N)N)NC(=O)[C@H](Cc2c[nH]cn2)NC(=O)[C@H](C)NC(=O)CN(C)C(=O)[C@H](Cc2c[nH]c3ccccc23)NC(=O)[C@H](CC(=O)O)NC(=O)[C@H](CCC(N)=O)NC(=O)[C@H](Cc2cn(C)c3ccccc23)NC(=O)[C@H](C(C)C)NC1=O` [mPEG(1056)-Cp40], at human C3b, the kon came to 720000 M⁻¹ s⁻¹. In [3], this compound gave a solubility of 137 mg/mL (≈ 47.4 mM).

“mPEG(1k)-Cp40: N-terminus of Cp40 coupled to polydisperse PEG chain of 1 kDa via amide coupling” had an AUC0-120 h in data set [4] of 304.4 to 312 µM·h. Also, the “detection in the vitreous at time points post-injection” value in data set [5] was “detected at day 14 post injection but not in later time points”.

Consider “mPEG(2k)-Cp40: N-terminus of Cp40 coupled to polydisperse PEG chain of 2 kDa via amide coupling”, for which the “pH of the peptide solution in PBS” value in [3] came to 7.5.
